Experimental data from ChEMBL document CHEMBL4819121, “Fused chromeno and quinolino[1,8]naphthyridines: Synthesis and biological evaluation as topoisomerase I inhibitors and antiproliferative agents” (Bioorg Med Chem, 2021).
Calls of active or inactive are those of the source. No cut-off for these calls is given here.

Assays:
MRC5 = experiment: Antiproliferative activity against human MRC5 cells assessed as cell growth inhibition measured after 48 hrs by CCK-8 assay; format: cell-based; settings: MRC5, 48 h
[1] = biological target: T1, DNA topoisomerase 1 (Homo sapiens) (UniProt P11387); experiment: Inhibition of recombinant human topoisomerase 1 expressed in yeast TopI null strain RS190 at 100 uM using negatively supercoiled pUC18 plasmid DNA as substrate incubated for 15 secs by agarose gel electrophoresis method; settings: time 15.0 sec
T1 sequence (whole entry): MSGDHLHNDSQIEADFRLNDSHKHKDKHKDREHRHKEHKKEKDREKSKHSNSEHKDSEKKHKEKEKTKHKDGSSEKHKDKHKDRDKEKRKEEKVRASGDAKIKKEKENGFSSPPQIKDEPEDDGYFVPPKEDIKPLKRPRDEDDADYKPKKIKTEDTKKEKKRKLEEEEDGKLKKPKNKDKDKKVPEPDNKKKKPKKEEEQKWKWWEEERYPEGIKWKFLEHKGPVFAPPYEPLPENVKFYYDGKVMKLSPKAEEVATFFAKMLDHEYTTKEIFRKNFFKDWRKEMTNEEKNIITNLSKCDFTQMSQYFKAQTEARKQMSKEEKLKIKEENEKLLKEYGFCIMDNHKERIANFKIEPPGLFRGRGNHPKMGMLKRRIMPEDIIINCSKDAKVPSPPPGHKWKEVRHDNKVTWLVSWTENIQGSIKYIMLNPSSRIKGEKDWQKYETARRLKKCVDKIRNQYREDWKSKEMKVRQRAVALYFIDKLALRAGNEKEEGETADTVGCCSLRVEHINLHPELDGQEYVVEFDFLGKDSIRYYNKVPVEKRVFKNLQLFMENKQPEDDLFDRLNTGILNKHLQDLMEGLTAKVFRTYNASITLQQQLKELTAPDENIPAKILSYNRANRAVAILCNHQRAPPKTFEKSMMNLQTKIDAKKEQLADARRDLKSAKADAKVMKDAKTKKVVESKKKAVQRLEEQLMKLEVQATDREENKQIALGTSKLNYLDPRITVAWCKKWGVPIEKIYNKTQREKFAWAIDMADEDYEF

SK-OV-3 = experiment: Antiproliferative activity against human SK-OV-3 cells assessed as cell growth inhibition measured after 48 hrs by CCK-8 assay; format: functional, cell-based; settings: SK-OV-3, 48 h
A549 = experiment: Antiproliferative activity against human A549 cells assessed as cell growth inhibition measured after 48 hrs by CCK-8 assay; format: functional, cell-based; settings: A549, 48 h
[2] = biological target: T1, DNA topoisomerase 1 (Homo sapiens); experiment: Inhibition of recombinant human topoisomerase 1 expressed in yeast TopI null strain RS190 at 100 uM using negatively supercoiled pUC18 plasmid DNA as substrate incubated for 1 min by agarose gel electrophoresis method
[3] = biological target: T1, DNA topoisomerase 1 (Homo sapiens); experiment: Inhibition of recombinant human topoisomerase 1 expressed in yeast TopI null strain RS190 at 100 uM using negatively supercoiled pUC18 plasmid DNA as substrate incubated for 3 min by agarose gel electrophoresis method
[4] = biological target: T1, DNA topoisomerase 1 (Homo sapiens); experiment: Poison activity at recombinant human topoisomerase 1 expressed in yeast TopI null strain RS190 assessed as increase in nicked plasmid DNA at 100 uM using supercoiled pUC18 plasmid DNA as substrate incubated for 15 to 180 secs by Ethidium bromide staining based agarose gel electrophoresis analysis; settings: time 15-180 sec

SMILES | IC50 (MRC5) | inhibition [1] | IC50 (SK-OV-3) | IC50 (A549) | inhibition [2] | inhibition [3] | Activity [4]
O=C1Oc2ccc(F)cc2[C@H]2Nc3ncccc3[C@@H](c3ccccc3)[C@H]12 | > 50 µM | 5% | > 50 µM | > 50 µM | 5% | 4% | 
Fc1ccc2c(c1)[C@H]1Nc3ncccc3[C@@H](c3ccccc3)[C@@H]1CO2 | > 50 µM | 14% | > 50 µM | > 50 µM | 14% | 1% | 
COc1ccc(-c2c3c(nc4ncccc24)-c2ccccc2OC3)cc1 | > 50 µM | 11% | > 50 µM | > 50 µM | 11% | 6% | 
Cc1ccc(S(=O)(=O)N2Cc3c(nc4ncccc4c3-c3ccccc3)-c3ccccc32)cc1 | > 50 µM | 95% | 16.9 µM | 17.9 µM | 93% | 92% | 
O=c1oc2ccc(F)cc2c2nc3ncccc3c(-c3ccccc3)c12 | > 50 µM | 5% | > 50 µM | > 50 µM | 4% | 4% | 
O=c1oc2ccccc2c2nc3ncc(Br)cc3c(-c3ccccc3)c12 | > 50 µM | 21% | > 50 µM | > 50 µM | 15% | 5% | 
c1ccc(-c2c3c(nc4ncccc24)-c2ccccc2OC3)cc1 | > 50 µM | 10% | > 50 µM | > 50 µM | 9% | 2% | 
O=C1Oc2ccccc2[C@H]2Nc3ncc(Br)cc3[C@@H](c3ccccc3)[C@H]12 | > 50 µM | 11% | > 50 µM | > 50 µM | 10% | 1% | 
c1ccc([C@@H]2c3cccnc3N[C@@H]3c4ccccc4OC[C@@H]23)cc1 | > 50 µM | 61% | 12.2 µM | 11.7 µM | 60% | 5% | 
Cc1ccc2c(c1)[C@H]1Nc3ncccc3[C@@H](c3ccccc3)[C@@H]1CO2 | > 50 µM | 21% | > 50 µM | > 50 µM | 15% | 1% | 
CC[C@@]1(O)C(=O)OCc2c1cc1n(c2=O)Cc2cc3ccccc3nc2-1 |  |  |  |  |  |  | Active
Fc1ccc2c(c1)-c1nc3ncccc3c(-c3ccccc3)c1CO2 | > 50 µM | 41% | 38.1 µM | 31.2 µM | 40% | 11% | 
Cc1ccc(S(=O)(=O)N2Cc3c(nc4ncc(Br)cc4c3-c3ccccc3)-c3ccccc32)cc1 | > 50 µM | 98% | 12.2 µM | 10.5 µM | 98% | 95% | Active
Cc1ccc(S(=O)(=O)N2C[C@H]3[C@H](c4ccccc4)c4cccnc4N[C@@H]3c3ccccc32)cc1 | > 50 µM | 91% | 8.21 µM | 6.3 µM | 89% | 85% | Active
Cc1ccc2c(c1)-c1nc3ncccc3c(-c3ccccc3)c1CO2 | > 50 µM | 26% | > 50 µM | > 50 µM | 1% | 1% | 
O=c1oc2ccccc2c2nc3ncccc3c(-c3ccccc3)c12 | > 50 µM | 75% | 1.78 µM | 1.23 µM | 75% | 51% | 
